The values below are quoted from earlier work in patent US11980189B2, “Agricultural formulations, uses thereof and processes for preparation thereof” (Valent U.S.A. LLC, priority 2020, dated 2024).

Consider `COCC(=O)N(c1c(C)cccc1C)C(C)C(=O)OC` (stereo not shown) [metalaxyl, Metalaxyl], for which the partial water solubility is 8,400 parts per million.
